Experimental data reported in patent US20240239755A1, “SUBSTITUTED PYRIDAZINONES, SALTS OR N-OXIDES THEREOF AND THEIR USE AS HERBICIDALLY ACTIVE SUBSTANCES” (Bayer Aktiengesellschaft, priority 2021, published 2024).

How the values were obtained:
Type in all cases: in vivo
Lolium rigidum (LOLRI) [1] = assay: Herbicidal pre-emergence action, 1280 g/ha (Table A5); conditions: visual grading after ca. 3 weeks vs untreated controls
In short: (§1)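 Weed seeds sown in sandy loam pots and covered with soil; compounds formulated as WP or EC applied to the soil surface in water with 0.5% additive at 600 L water/ha. Pots kept in a greenhouse under optimum growth conditions; damage visually graded after ca. 3 weeks versus untreated controls (0% = as control, 100% = plants dead).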

Poa annua (POAAN) = assay: Herbicidal pre-emergence action, 1280 g/ha (Table A7); conditions: visual grading after ca. 3 weeks vs untreated controls
In short: as §1

Stellaria media (STEME) [2] = assay: Herbicidal pre-emergence action, 1280 g/ha (Table A9); conditions: visual grading after ca. 3 weeks vs untreated controls
In short: as §1

[3] = system: Amaranthus retroflexus (AMARE); assay: Herbicidal pre-emergence action, 1280 g/ha (Table A11); conditions: visual grading after ca. 3 weeks vs untreated controls
In short: as §1

[4] = system: Abutilon theophrasti (ABUTH); assay: Herbicidal post-emergence action, 1280 g/ha (Table B1); conditions: visual assessment after ca. 3 weeks vs untreated controls
In short: (§2)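 Foliar application to single-leaf weeds in sandy loam; percent kill judged visually ca. 3 weeks later relative to untreated plants.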

Kochia scoparia (KCHSC) [5] = assay: Herbicidal post-emergence action, 1280 g/ha (Table B4); conditions: visual assessment after ca. 3 weeks vs untreated controls
In short: as §2

Lolium rigidum (LOLRI) [6] = assay: Herbicidal post-emergence action, 1280 g/ha (Table B5); conditions: visual assessment after ca. 3 weeks vs untreated controls
In short: as §2

[7] = system: Matricaria inodora (MATIN); assay: Herbicidal post-emergence action, 1280 g/ha (Table B6); conditions: visual assessment after ca. 3 weeks vs untreated controls
In short: as §2

Stellaria media (STEME) [8] = assay: Herbicidal post-emergence action, 1280 g/ha (Table B9); conditions: visual assessment after ca. 3 weeks vs untreated controls
In short: as §2

Veronica persica (VERPE) [9] = assay: Herbicidal post-emergence action, 1280 g/ha, VERPE; conditions: visual grading vs untreated controls
In short: (§3)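 Visual rating ~3 weeks after treatment: 0% equals untreated control, 100% means plants died. Treatment was a 1280 g/ha foliar spray (600 L water/ha, 0.5% additive, WP or EC formulation) applied to single-leaf-stage plants grown 2–3 weeks in sandy loam under controlled conditions.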

[10] = system: Amaranthus retroflexus (AMARE); assay: Herbicidal post-emergence action, 1280 g/ha, AMARE; conditions: visual grading vs untreated controls
In short: as §3

[11] = system: Amaranthus retroflexus (AMARE); assay: Herbicidal pre-emergence action, 320 g/ha, AMARE; conditions: visual grading after ca. 3 weeks
Source text: (§4) Seeds of mono- and dicotyledonous weed plants were sown in plastic pots (double sowings with one species of mono- and one species of dicotyledonous weed plants per pot), in sandy loam, and covered with soil. The compounds according to the invention, formulated in the form of wettable powders (WP) or as emulsifiable concentrates (EC), were applied to the surface of the covering soil as an aqueous suspension or as an emulsion, with the addition of 0.5% of an additive, at an application rate of 600 litres of water per hectare (converted). Following treatment, the pots were placed in a greenhouse and kept under optimum growth conditions for the test plants. The visual grading of the damage to the test plants was carried out after ca. 3 weeks in comparison to untreated controls (herbicidal effect in percent (%): 100% effect=plants have died, 0% effect=as control plants).
Tables C1 to C6 below, show the effects of selected compounds of the general formula (I) according to Table 1 on various harmful plants using an application rate corresponding to 320 g/ha obtained by the experimental procedure mentioned above.

Kochia scoparia (KCHSC) [12] = assay: Herbicidal post-emergence action, 320 g/ha, KCHSC; conditions: visual grading after ca. 3 weeks
In short: (§5)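 Weeds were sown in sandy loam pots and sprayed post-emergence at the single-leaf stage, 2 to 3 weeks after sowing, with WP or EC formulations in water plus 0.5% additive at 600 L/ha. Visual % injury versus untreated controls was scored after ca. 3 weeks in the greenhouse.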

Stellaria media (STEME) [13] = assay: Herbicidal post-emergence action, 320 g/ha, STEME; conditions: visual grading after ca. 3 weeks
In short: as §5

Veronica persica (VERPE) [14] = assay: Herbicidal post-emergence action, 320 g/ha, VERPE; conditions: visual grading after ca. 3 weeks
Source text: (§6) Seeds of mono- and dicotyledonous weed plants were sown in plastic pots (double sowings with one species of mono- and one species of dicotyledonous weed plants per pot), in sandy loam, covered with soil and grown under controlled growth conditions. 2 to 3 weeks after sowing, the test plants were sprayed in the single-leaf stage. The compounds according to the invention, formulated in the form of wettable powders (WP) or as emulsifiable concentrates (EC), were sprayed onto the green plant parts as an aqueous suspension or as an emulsion, with the addition of 0.5% of an additive, at an application rate of 600 litres of water per hectare (converted). The test plants were placed in the greenhouse for ca. 3 weeks under optimum growth conditions, and then the effect of the preparations was assessed visually in comparison with untreated controls (herbicidal effect in percent (%): 100% effect=plants have died, 0% effect=as control plants).
(§7) Tables D1 to D8 below, show the effects of selected compounds of the general formula (I) according to Table 1 on various harmful plants using an application rate corresponding to 320 g/ha obtained by the experimental procedure mentioned above.

[15] = system: Amaranthus retroflexus (AMARE); assay: Herbicidal post-emergence action, 320 g/ha, AMARE; conditions: visual grading after ca. 3 weeks
In short: as §5

[16] = system: Abutilon theophrasti (ABUTH); assay: Herbicidal pre-emergence action, 1280 g/ha (Table A1); conditions: visual grading after ca. 3 weeks vs untreated controls
In short: as §1

[17] = system: Matricaria inodora (MATIN); assay: Herbicidal pre-emergence action, 1280 g/ha (Table A6); conditions: visual grading after ca. 3 weeks vs untreated controls
In short: as §1

Setaria viridis (SETVI) [18] = assay: Herbicidal pre-emergence action, 1280 g/ha (Table A8); conditions: visual grading after ca. 3 weeks vs untreated controls
Source text: as §4, with “plants). Tables A1 to A11 below, show the effects of selected compounds of the general formula (I) according to Table 1 on various harmful plants and an application rate corresponding to 1280 g/ha obtained by the experimental procedure mentioned above.” for “plants).”

Stellaria media (STEME) [19] = assay: Herbicidal pre-emergence action, 320 g/ha, STEME; conditions: visual grading after ca. 3 weeks
In short: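 Percent herbicidal effect, graded by eye about 3 weeks after treatment relative to untreated pots (0% matching controls, 100% dead plants). Application of 320 g/ha onto soil covering freshly sown seeds, as aqueous suspension or emulsion plus 0.5% additive at 600 L/ha; pots kept in greenhouse.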

[20] = system: Matricaria inodora (MATIN); assay: Herbicidal post-emergence action, 320 g/ha, MATIN; conditions: visual grading after ca. 3 weeks
In short: as §5

Lolium rigidum (LOLRI) [21] = assay: Herbicidal pre-emergence action, 320 g/ha (Table C2); conditions: visual grading after ca. 3 weeks vs untreated controls
In short: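 Herbicidal effect was graded by eye roughly 3 weeks after treatment, from 0% (as control) to 100% (dead plants). Weed seeds sown in sandy loam were covered and sprayed on the soil surface with WP/EC suspensions or emulsions, 0.5% additive, 600 L water/ha, then kept in a greenhouse.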

[22] = system: Abutilon theophrasti (ABUTH); assay: Herbicidal post-emergence action, 320 g/ha, ABUTH; conditions: visual grading after ca. 3 weeks
In short: as §5

Lolium rigidum (LOLRI) [23] = assay: Herbicidal post-emergence action, 320 g/ha, LOLRI; conditions: visual grading after ca. 3 weeks
Source text: as §6, §7

Setaria viridis (SETVI) [24] = assay: Herbicidal post-emergence action, 1280 g/ha (Table B8); conditions: visual assessment after ca. 3 weeks vs untreated controls
Source text: as §6, with “plants). Tables B1 to B11 below, show the effects of selected compounds of the general formula (I) according to Table 1 on various harmful plants using an application rate corresponding to 1280 g/ha obtained by the experimental procedure mentioned above.” for “plants).”

Cc1nn(C)c(=O)c(Oc2ccccc2Cl)c1O [Example I-003]
100%: herbicidal effect LOLRI (Lolium rigidum (LOLRI) [1]) | herbicidal effect STEME (Stellaria media (STEME) [2]) | herbicidal effect KCHSC (Kochia scoparia (KCHSC) [5]) | herbicidal effect MATIN [7] | herbicidal effect STEME (Stellaria media (STEME) [8]) | herbicidal effect VERPE (Veronica persica (VERPE) [9]) | herbicidal effect AMARE [10] | herbicidal effect VERPE (Veronica persica (VERPE) [14])
90%: herbicidal effect POAAN (Poa annua (POAAN)) | herbicidal effect AMARE [3] | herbicidal effect ABUTH [4] | herbicidal effect LOLRI (Lolium rigidum (LOLRI) [6]) | herbicidal effect AMARE [11] | herbicidal effect KCHSC (Kochia scoparia (KCHSC) [12]) | herbicidal effect STEME (Stellaria media (STEME) [13]) | herbicidal effect AMARE [15]

Cc1nn(C)c(=O)c(Oc2ccccc2C2CC2)c1O [Example I-014]
90%: herbicidal effect ABUTH [16] | herbicidal effect POAAN (Poa annua (POAAN)) | herbicidal effect SETVI (Setaria viridis (SETVI) [18]) | herbicidal effect LOLRI (Lolium rigidum (LOLRI) [6]) | herbicidal effect MATIN [7] | herbicidal effect VERPE (Veronica persica (VERPE) [9]) | herbicidal effect AMARE [10] | herbicidal effect AMARE [11] | herbicidal effect MATIN [20] | herbicidal effect AMARE [15]
100%: herbicidal effect LOLRI (Lolium rigidum (LOLRI) [1]) | herbicidal effect MATIN [17] | herbicidal effect STEME (Stellaria media (STEME) [2]) | herbicidal effect AMARE [3] | herbicidal effect KCHSC (Kochia scoparia (KCHSC) [5]) | herbicidal effect STEME (Stellaria media (STEME) [8]) | herbicidal effect STEME (Stellaria media (STEME) [19]) | herbicidal effect KCHSC (Kochia scoparia (KCHSC) [12]) | herbicidal effect STEME (Stellaria media (STEME) [13])

Cc1nn(C)c(=O)c(Oc2ccc(F)cc2C2CC2)c1O [Example I-033]
100%: herbicidal effect LOLRI (Lolium rigidum (LOLRI) [1]) | herbicidal effect AMARE [10] | herbicidal effect LOLRI (Lolium rigidum (LOLRI) [21])
90%: herbicidal effect STEME (Stellaria media (STEME) [2]) | herbicidal effect AMARE [3] | herbicidal effect ABUTH [4] | herbicidal effect KCHSC (Kochia scoparia (KCHSC) [5]) | herbicidal effect MATIN [7] | herbicidal effect STEME (Stellaria media (STEME) [8]) | herbicidal effect VERPE (Veronica persica (VERPE) [9]) | herbicidal effect AMARE [11] | herbicidal effect ABUTH [22] | herbicidal effect AMARE [15]

Cc1nn(C)c(=O)c(Oc2cc(Cl)ccc2Cl)c1OC(=O)C(C)C [Example I-095]
100%: herbicidal effect LOLRI (Lolium rigidum (LOLRI) [1]) | herbicidal effect STEME (Stellaria media (STEME) [2]) | herbicidal effect AMARE [3]
90%: herbicidal effect MATIN [17] | herbicidal effect LOLRI (Lolium rigidum (LOLRI) [6]) | herbicidal effect MATIN [7] | herbicidal effect STEME (Stellaria media (STEME) [8]) | herbicidal effect AMARE [10] | herbicidal effect LOLRI (Lolium rigidum (LOLRI) [21]) | herbicidal effect STEME (Stellaria media (STEME) [19]) | herbicidal effect AMARE [11] | herbicidal effect LOLRI (Lolium rigidum (LOLRI) [23]) | herbicidal effect STEME (Stellaria media (STEME) [13])

CCOC(=O)Oc1c(C)nn(C)c(=O)c1Oc1cc(F)ccc1C1CC1 [Example I-045]
90%: herbicidal effect ABUTH [16] | herbicidal effect MATIN [17] | herbicidal effect SETVI (Setaria viridis (SETVI) [18]) | herbicidal effect KCHSC (Kochia scoparia (KCHSC) [5]) | herbicidal effect SETVI (Setaria viridis (SETVI) [24]) | herbicidal effect LOLRI (Lolium rigidum (LOLRI) [21]) | herbicidal effect STEME (Stellaria media (STEME) [19]) | herbicidal effect KCHSC (Kochia scoparia (KCHSC) [12]) | herbicidal effect MATIN [20] | herbicidal effect STEME (Stellaria media (STEME) [13]) | herbicidal effect AMARE [15]
100%: herbicidal effect LOLRI (Lolium rigidum (LOLRI) [1]) | herbicidal effect STEME (Stellaria media (STEME) [2]) | herbicidal effect AMARE [3] | herbicidal effect ABUTH [4] | herbicidal effect LOLRI (Lolium rigidum (LOLRI) [6]) | herbicidal effect MATIN [7] | herbicidal effect STEME (Stellaria media (STEME) [8]) | herbicidal effect VERPE (Veronica persica (VERPE) [9]) | herbicidal effect AMARE [10] | herbicidal effect ABUTH [22] | herbicidal effect LOLRI (Lolium rigidum (LOLRI) [23]) | herbicidal effect VERPE (Veronica persica (VERPE) [14])

Cc1nn(C)c(=O)c(Oc2cc(Cl)ccc2Br)c1OC(=O)C(C)C [Example I-092]
100%: herbicidal effect LOLRI (Lolium rigidum (LOLRI) [1]) | herbicidal effect MATIN [17] | herbicidal effect STEME (Stellaria media (STEME) [2]) | herbicidal effect AMARE [3] | herbicidal effect STEME (Stellaria media (STEME) [8]) | herbicidal effect LOLRI (Lolium rigidum (LOLRI) [21])
90%: herbicidal effect ABUTH [16] | herbicidal effect SETVI (Setaria viridis (SETVI) [18]) | herbicidal effect LOLRI (Lolium rigidum (LOLRI) [6]) | herbicidal effect MATIN [7] | herbicidal effect SETVI (Setaria viridis (SETVI) [24]) | herbicidal effect AMARE [10] | herbicidal effect STEME (Stellaria media (STEME) [19]) | herbicidal effect AMARE [11] | herbicidal effect STEME (Stellaria media (STEME) [13])
